Inhibition and IC50 data for 14 compounds are collected here from patent US6900200B2, “Tricyclic hydroxy carboxamides and derivatives thereof tocolytic oxytocin receptor antagonists” (Wyeth, priority 2001, dated 2005).

pIC50: −log10 of the molar value.

T1 sequence (P30518 whole entry): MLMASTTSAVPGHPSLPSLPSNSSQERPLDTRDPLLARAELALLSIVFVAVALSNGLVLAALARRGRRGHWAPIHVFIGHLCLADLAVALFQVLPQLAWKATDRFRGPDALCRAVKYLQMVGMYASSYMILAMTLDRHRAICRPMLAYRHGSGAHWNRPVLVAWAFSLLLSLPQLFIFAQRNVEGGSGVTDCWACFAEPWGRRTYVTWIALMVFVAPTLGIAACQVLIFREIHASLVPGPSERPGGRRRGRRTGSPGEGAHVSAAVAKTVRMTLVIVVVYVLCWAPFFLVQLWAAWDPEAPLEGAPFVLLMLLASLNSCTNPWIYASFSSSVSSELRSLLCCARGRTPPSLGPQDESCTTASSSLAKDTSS

The first assay addresses T1, human vasopressin V2 receptor subtype (Homo sapiens, UniProt P30518).
T1 construct: host or cells: CHO cells, pZeoSV vector
Nature of the assay: Vasopressin binding in CHO cell membranes expressing human vasopressin V2 subtype receptors ([3H]arginine vasopressin radioligand binding). Conditions: @ 100 nM. An excerpt: Vasopressin Binding in Chinese Hamster Ovary Cell Membranes Expressing Human Vasopressin V2 Subtype Receptors
Chinese Hamster Ovary (CHO) cells stably transfected with the human V2 subtype receptors were obtained from M. Thibonnier, Case Western Reserve University School of Medicine, Cleveland, Ohio.
A. Passaging and Amplification of Cells
CHO cells transfected with the human vasopressin V2 subtype receptors obtained from M. Thibonnier (pZeoSV vector) are allowed to grow to confluency (approx. >90%) in T-150 flasks under sterile conditions, in a cell culture medium ofF-12 Nutrient Mixture (HAM) with L-glutamine (Gibco Cat. #11765-054) containing 15 mM HEPES (Gibco Cat. #15630-080), 1% antibiotic/antimycotic (add 5 mL 100×, Gibco Cat. #15240-062 per 500 mL F-12), 250 μg/mL Zeocin (add 1.25 mL of 100 mg/mL Invitrogen R-250-01 per 500 mL F-1 2) and 10% Fetal Bovine Serum (Qualified, heat inactivated, Gibco Cat. #16140-063). The medium is removed by aspiration and the cells washed with 10 mL of Hank's Balanced Salt solution (Gibco Cat. #14175-095). The salt solution is removed by aspiration and the cells trypsinized with 5 mL of trypsin-EDTA (0.05% trypsin, 0.53 mM EDTA-4Na, Gibco Cat. #25300-070) for 1 min. The trypsin is removed by aspiration and the cells dislodged by tapping. Cell Culture medium (e.g. 30 mL for 1:30 split) is immediately added and mixed well to inactivate trypsin. 1 mL of detached cells is added to new culture flasks containing fresh Cell Culture medium (e.g. into 25 mL per T-150 flask), and mixed gently. The cells are incubated at 37° C. in 5% CO2. The medium is changed at 3 to 4 day interval (or as appropriate). The cells grow to confluency (approx. >75%-95%) within 7-8 days. All steps are done under sterile conditions.
The cells are washed twice gently with Hank's Balanced Salt solution (e.g. use 10 mL per T-150 flask). The excess solution is removed and the cells bathed for 15-30 min. in an enzyme-free Cell Dissociation Buffer (e.g. use 8 mL Hank's Based, Gibco Cat. # 13150-016 per T-150 flask) until cells are loosened. The contents are transferred to centrifuge tubes (50 mL) kept in ice bath. All subsequent steps are done at 4° C. The tubes are centrifuged at 300×g for 15 min (1380 rpm on SORVAL, Model RT6000D, using the rotor for 50 mL tubes). The supernatant is discarded and the cells suspended in homogenizing buffer (10 mM Tris-HCl containing 0.25 M sucrose and 1 mM EDTA, pH 7.4) ensuring that the volume of the buffer is about ten times the volume of the cell pellet. The cells are pooled into a centrifuge tube (50 mL) and homogenized with Polytron at setting 6 for 10 sec. The homogenate is transferred into a Potter-Elvjehm homogenizer and homogenized with 3 strokes. The homogenate is centrifuged at 1500×g for 60 min at 4° C. (3100 rpm using SORVAL, model RT6000D, using the rotor for 50 mL tubes). The pellet is discarded. The supernatant is centrifuged at 100,000×g for 60 min. at 4° C. (Beckman L8-80M ultracentrifuge; spin at 37,500 rpm with rotor type 70 Ti for 50 mL tubes; 38,000 rpm with type 80Ti for 15 mL tubes; or 35,800 rpm with rotor type 45Ti). The supernantant is discarded and the pellet suspended in 3 to 4 mL of Tris buffer (50 mM TRIS—HCl, pH 7.4). The protein content is estimated by the Bradford or Lowry method. The volume of the membrane suspension is adjusted with the membrane buffer (50 mM Tris-HCl containing 0.1% BSA and 0.1 mM PMSF) to give 3.0 mg/mL (or as appropriate) of protein. The membranes are aliquoted and stored at −70. ° C.
C. Radioligand Binding Assay
In wells of a 96-well format microtiter plate, is added 90, 110 or 130 μL (to make up a final volume of 200 μL) of assay buffer containing 50 mM of Tris-HCl (pH 7.4), […], 1 mg % aprotinin, 1 mg % leupeptin, 2 mg % 1,10-phenanthroline, 10 mg % trypsin inhibitor, and 0.1 mM PMSF. The inhibitors are added on the day of the experiment. […]
By inhibition is commonly meant the relative decrease from the control value, in per cent. `Cc1ccccc1-c1ccc(C(=O)N2Cc3ccc(C(=O)N4CCN(CCO)CC4)n3Cc3ccccc32)cc1` [Example 45, [4-(2-Hydroxyethyl)-1-piperazinyl]{10-[(2′-methyl[1,1′-biphenyl]-4-yl)carbonyl]-10,11-dihydro-5H-pyrrolo[2,1-c][1,4]benzodiazepin-3-yl}methanone] displayed an inhibition at 0.1 µM of 9%.
Same read-out and setting: the result for `COc1ccccc1-c1ccc(C(=O)N2Cc3ccc(C(=O)N(C)C[C@H](O)CO)n3Cc3ccccc32)cc1C` (single isomer, unassigned) [Example 15] reads 74%.
The compound `COc1cccc(-c2cc(OC)c(C(=O)N3Cc4ccc(C(=O)N5CCN(CCO)CC5)n4Cc4ccccc43)cc2Cl)c1` [Example 49, {10-[(6-Chloro-3,3′-dimethoxy[1,1′-biphenyl]-4-yl)carbonyl]-10,11-dihydro-5H-pyrrolo[2,1-c][1,4]benzodiazepin-3-yl}[4-(2-hydroxyethyl)-1-piperazinyl]methanone] yielded an inhibition at 0.1 µM of 21%.
Regarding `COc1cc(C(=O)N2Cc3ccc(C(=O)N4CCN(CCO)CC4)n3Cc3ccccc32)ccc1-c1cccc2ccccc12` [Example 41, [4-(2-Hydroxyethyl)-1-piperazinyl]{10-[3-methoxy-4-(1-naphthyl)benzoyl]-10,11-dihydro-5H-pyrrolo[2,1-c][1,4]benzodiazepin-3-yl}methanone], the inhibition at 0.1 µM was determined as 35%.
Same read-out and setting: the result for `COc1cc(C(=O)N2Cc3ccc(C(=O)N4CCN(CCO)CC4)n3Cc3ccccc32)ccc1-n1c(C)ccc1C` [Example 52, {10-[4-(2,5-Dimethyl-1H-pyrrol-1-yl)-3-methoxybenzoyl]-10,11-dihydro-5H-pyrrolo[2,1-c][1,4]benzodiazepin-3-yl}[4-(2-hydroxyethyl)-1-piperazinyl]methanone] reads 3%; that for `Cc1ccccc1-c1ccc(C(=O)N2Cc3ccc(C(=O)N4CCN(CCO)CC4)n3Cc3ccccc32)cc1C` [Example 46, {10-[(2,2′-Dimethyl[1,1′-biphenyl]-4-yl)carbonyl]-10,11-dihydro-5H-pyrrolo[2,1-c][1,4]benzodiazepin-3-yl}[4-(2-hydroxyethyl)-1-piperazinyl]methanone], 14%.
In turn, `COc1cc2c(cc1OC)N(C(=O)c1ccc(-c3ccccc3OC)c(C)c1)Cc1ccc(C(=O)N(C)C[C@H](O)[C@@H](O)[C@H](O)[C@H](O)CO)n1C2` [Example 37, 7,8-Dimethoxy-10-[(2′-methoxy-2-methyl-[1,1′-biphenyl]-4-yl)carbonyl]-10,11-dihydro-5H-pyrrolo[2,1-c][1,4]benzodiazepine-3-carboxylic acid methyl-[(2S, 3R, 4R, 5R)-2,3,4,5,6-pentahydroxy-hexyl)-amide] registered an inhibition at 0.1 µM of 7%.
`O=C(c1ccc2n1Cc1ccccc1N(C(=O)c1ccc(-c3cccc4ccccc34)cc1Cl)C2)N1CCN(CCO)CC1` [Example 25, 2-{4-[10-{[2-Chloro-4-(naphthalen-1-yl)phenyl]carbonyl}-(10,11-dihydro-5H-pyrrolo[2,1-c][1,4]benzodiazepin-3-yl)carbonyl]piperazine-1-yl}-1-hydroxyethane] gave an inhibition at 0.1 µM of 21%.
As for `COc1ccccc1-c1ccc(C(=O)N2Cc3ccc(C(=O)N4CCN(CCO)CC4)n3Cc3ccccc32)cc1OC` [Example 43, {10-[(2,2′-Dimethoxy[1,1′-biphenyl]-4-yl)carbonyl]-10,11-dihydro-5H-pyrrolo[2,1-c][1,4]benzodiazepin-3-yl}[4-(2-hydroxyethyl)-1-piperazinyl]methanone], the inhibition at 0.1 µM was found to be 27%.

Still in this assay, the particulars now being: value printed in parentheses.
By pIC50 is commonly meant −log10 of the IC50, conventionally taken in molar units. Regarding `COC[C@@H](O)CN1CCN(C(=O)c2ccc3n2Cc2ccccc2N(C(=O)c2ccc(-c4ccccc4C(F)(F)F)c(C)c2)C3)CC1` [Example 9, [3-({4-[(2S)-2-Hydroxy-3-methoxypropyl]-1-piperazinyl}carbonyl)-5H-pyrrolo[2,1-c][1,4]benzodiazepin-10(11H)-yl][2-methyl-2′-trifluoromethyl-[1,1′-biphenyl]-4-yl]methanone], the negative-log IC50 (pIC50) is 5.91.
Turning to `Cc1cc(C(=O)N2Cc3ccc(C(=O)N(C)C[C@@H]4OC(=O)O[C@H]4[C@H](O)[C@H]4COC(=O)O4)n3Cc3ccccc32)ccc1-c1ccccc1C(F)(F)F` [Example 12, N-[((4S,5S)-5-{(R)-Hydroxy[(4R)-2-oxo-1,3-dioxolan-4-yl]methyl}-2-oxo-1,3-dioxolan-4-yl)methyl]-N-methyl-10-{[2-methyl-2′-(trifluoromethyl)[1,1′-biphenyl]-4-yl]carbonyl}-10,11-dihydro-5H-pyrrolo[2,1-c]benzodiazepine-3-carboxamide], the pIC50 is 6.12.
As for `Cc1cc(C(=O)N2Cc3ccc(C(=O)N(CCO)CCO)n3Cc3ccccc32)ccc1-c1ccccc1C(F)(F)F` [Example 1, 10-[(2-Methyl-2′-trifluoromethyl-[1,1′-biphenyl]-4-yl)carbonyl]-10,11-dihydro-5H-pyrrolo[2,1-c][1,4]benzodiazepine-3-carboxylic acid bis-(2-hydroxy-ethyl)-amide], the pIC50 was 6.21.
For `COc1cc(C(=O)N2Cc3ccc(C(=O)N(C)CC(O)CO)n3Cc3ccccc32)ccc1-c1ccccc1C(F)(F)F` (centres unmarked) [Example 21, N-(2,3-Dihydroxypropyl)-10-{[2-methoxy-2′-trifluoromethyl-[1,1′-biphenyl]-4-yl]carbonyl}-N-methyl-10,11-dihydro-5H-pyrrolo[2,1-c][1,4]benzodiazepine-3-carboxamide], the negative-log IC50 (pIC50) is 6.51.
For the compound `Cc1cc(C(=O)N2Cc3ccc(C(=O)N(C)CC(O)CO)n3Cc3ccccc32)ccc1-c1ccccc1C(F)(F)F` (centres unmarked) [Example 2, 10-[(2-Methyl-2′-trifluoromethyl-[1,1′-biphenyl]-4-yl)carbonyl]-10,11-dihydro-5H-pyrrolo[2,1-c][1,4]benzodiazepine-3-carboxylic acid (2,3-dihydroxy-propyl)-methyl-amide], the pIC50 is 6.20.
